Tests used:
[1] = target: T1, PDEV (Homo sapiens, UniProt O76074); test: PDE assay: inhibition of PDEV isolated from human tissue; format: biochemical; details: for IC50: PDEV inhibitory activity
T1 construct: PDEV was isolated from rabbit and human tissues according to the protocol described by Boolell et al; from tissue; host or cells: human tissue, homogenate supernatant fractionated on Mono Q
Experimental: (§1) Briefly, rabbit or human tissues were homogenized in an ice-cold buffer solution containing 20 mM HEPES (pH 7.2), 0.25M sucrose, 1 mM EDTA, and 1 mM phenylmethylsulphonyl fluoride (PMSF). The homogenates were centrifuged at 100,000 g for 60 minutes at 4° C. The supernatant was filtered through […] filter and loaded on a Pharmacia Mono Q anion exchange column (1 ml bed volume) that was equilibrated with 20 mM HEPES, 1 mM EDTA and 0.5 mM PMSF. After washing out unbound proteins, the enzymes were eluted with a linear gradient of 100-600 mM NaCl in the same buffer (35 to 50 ml total, depending on the tissue. Enzymes from the skeletal muscle, corpus cavernosum, retina, heart and platelet were eluted with 35, 40, 45, 50, and 50 ml respectively.) The column was run at a flow rate of 1 ml/min and 1 ml fractions were collected. The fractions comprising various PDE activities were pooled separately and used in later studies.
(§2) The assays were adapted to a 96-well format. The enzyme was assayed in 5 mM MgCl2, 15 mM Tris HCl (pH 7.4), 0.5 mg/ml bovine serum albumin, 1 μM cGMP or cAMP, 0.1 μCi [^3H]-cGMP or [^3H]-cAMP, and 2-10 μl of column elution. The total volume of the assay was 100 μl. The reaction mixture was incubated at 30° C. for 30 minutes. The reaction was stopped by boiling for 1 minute and then cooled down on ice. The resulting [^3H]5′-mononucleotides were further converted to uncharged [^3H]-nucleosides by adding 25 μl 1 mg/ml snake venom (Ophiophagus hannah) and incubating at 30° C. for 10 minute. The reaction was stopped by the addition of 1 ml Bio-Rad AG1-X2 resin slurry (1:3). All the charged nucleotides were bound by the resin and only uncharged [^3H]-nucleosides remained in the supernatant after centrifuging. An aliquot of 200 μl was taken and counted by liquid scintillation. PDE activity was expressed as pmol cyclic nucleotide hydrolyzed/min/ml of enzyme preparation.
(§3) Inhibitor studies were carried out in assay buffer with a final concentration of 10% DMSO.
(§4) The % inhibition of the maximum substrate conversion (by the enzyme in the absence of inhibitor) was calculated for each test compound concentration. Using GraphPad Prism's nonlinear regression analysis (sigmoidal dose response), the % inhibition vs log of the test compound concentration was plotted to determine the IC50. Under conditions where substrate concentration <<Km of the enzyme (Km=substrate concentration at which half of the maximal velocity of the enzyme is achieved), Ki is equivalent to the IC50 value.
(§5) Unless otherwise noted, PDEV inhibitory activities were measured using human tissue. The abbreviation “stereo” refers to the stereogenic configuration, the abbreviation “Rac” shall denote a racemic mixture.

[2] = In vivo testing for efficacy, procedure of Carter et al.
Experimental: Following the procedure disclosed by Carter et al., (Carter, A. J., Ballard, S. A., and Naylor, A. M.) in The Journal of Urology 1998, 160, 242-246, the compounds as listed in Table 7 were tested for in vivo efficacy, with results as tabulated below.

[3] = target: PDEV (Oryctolagus cuniculus, UniProt G1SX67); test: PDE assay: inhibition of PDEV isolated from rabbit tissue; format: biochemical; details: PDEV inhibitory activity, rabbit tissue (footnote a)
Experimental: as §1, §2, §3, §4, §5

[4] = target: T1, PDEV; test: In vitro determination of Ki for phosphodiesterase inhibitors; format: biochemical; details: human tissue; given as 'Ki ='
Experimental: The assays were adapted to a 96-well format. Phosphodiesterase was assayed in 5 mM MgCl2, 15 mM Tris HCl (pH 7.4), 0.5 mg/ml bovine serum albumin, 30 nM ^3H-cGMP and test compound at various concentrations. The amount of enzyme used for each reaction was such that less than 15% of the initial substrate was converted during the assay period. For all measurements, the test compound was dissolved and diluted in 100% DMSO (2% DMSO in assay). The total volume of the assay was 100 μl. The reaction mixture was incubated at 30° C. for 90 minutes. The reaction was stopped by boiling for 1 minute and then immediately cooled by transfer to an ice bath. To each well was then added 25 μl 1 mg/ml snake venom (Ophiophagus hannah) and the reaction mixture incubating at 30° C. for 10 minute. The reaction was stopped by the addition of 1 ml Bio-Rad AG1-X2 resin slurry (1:3). An aliquot of 200 μl was taken and counted by liquid scintillation.
as §4, §5

Row | SMILES | IC50 [1] [pM] | Efficacy [2] | melting point | other results
1 | COc1ccc(-c2cnc(N3Cc4c([nH]c5ccccc5c4=O)[C@H]3c3ccc4c(c3)OCO4)nc2)cc1OC [Compound 36, (R)-1,2,3,4-Tetrahydro-2-[5-(3,4-dimethoxyphenyl)-pyrimidin-2-yl]-3-(3,4-methylenedioxyphenyl)-9H-pyrrolo-[3,4-b]quinolin-9-one] | 75 | Active | – | –
2 | Cl.O=C(OCc1ccncc1)N1Cc2c([nH]c3ccccc3c2=O)C1c1ccc2c(c1)OCO2 (racemic) [Compound 37, 1,2,3,4-Tetrahydro-2-[(4-pyridinyl)methyloxycarbonyl]-3-(3,4-methylenedioxyphenyl)-9H-pyrrolo-[3,4-b]quinolin-9-one, hydrochloride salt] | 5720 | Active | – | –
3 | O=c1c2c([nH]c3ccccc13)[C@@H](c1ccc3c(c1)CCO3)N(c1ncc(-c3ccccn3)cn1)C2 [Compound 65, (R)-1,2,3,4-Tetrahydro-2-[5-(2-pyridinyl)-pyrimidin-2-yl]-3-(2,3-dihydrobenzofuranyl)-9H-pyrrolo-[3,4-b]quinolin-9-one] | 230 | Active | – | –
4 | COc1ccc(-c2cnc(N3Cc4c([nH]c5ccccc5c4=O)C3c3ccc4c(c3)OCO4)nc2)cc1 (racemic) [Compound 2, 1,2,3,4-Tetrahydro-2-[5-(4-methoxyphenyl)-pyrimidin-2-yl]-3-(3,4-methylene-dioxyphenyl)-9H-pyrrolo-[3,4-b]quinolin-9-one] | 191 | – | 325 to 327 °C | –
5 | COc1ccc(-c2cnc(N3Cc4c([nH]c5ccccc5c4=O)[C@H]3c3ccc4c(c3)CCO4)nc2)cc1 [Compound 66, (R)-1,2,3,4-Tetrahydro-2-[5-(4-methoxyphenyl)-pyrimidin-2-yl]-3-(2,4-dihydrobenzofuranyl)-9H-pyrrolo-[3,4-b]quinolin-9-one] | 190 | Active | – | –
6 | O=c1c2c([nH]c3ccccc13)C(c1ccc3c(c1)OCO3)N(C(=S)n1ccnc1)C2 (racemic) [Compound 18, 1,2,3,4-Tetrahydro-2-(imidazol-1-yl)thiocarbonyl-3-(3,4-methylenedioxyphenyl)-9H-pyrrolo-[3,4-b]quinolin-9-one] | – | – | 211 to 215 °C (dec.) | inhibition at 10 µM ([1]; 10 μM test compound): 54%
7 | COc1ccc(C2NCc3c2[nH]c2ccccc2c3=O)cc1OC (racemic) [Compound 12, 1,2,3,4-Tetrahydro-3-(3,4-dimethoxyphenyl)-9H-pyrrolo-[3,4-b]quinolin-9-one] | – | – | 223 to 225 °C | IC50 [3]: 549000 pM
8 | Oc1c2c(nc3ccccc13)C(c1ccc3c(c1)OCO3)N(c1ccc(-n3ccnc3)cc1)C2 (racemic) [Compound 133, 3-Benzo[1,3]dioxol-5-yl-2-(4-imidazol-1-yl-phenyl)-1,2,3,4-tetrahydro-pyrrolo[3,4-b]quinolin-9-one] | – | – | – | Ki [4]: 1.75 nM

— US6818646B2 (priority 2000, dated 2004)
